# Reference: patent US20240245670A1, “DOSING REGIMEN AND PHARMACEUTICAL COMBINATION COMPRISING 3-(1-OXOISOINDOLIN-2-YL)PIPERIDINE-2,6-DIONE DERIVATIVES” (Novartis AG, priority 2018, published 2024)
# How the values were obtained:
# [1] = test system: isolated primary human T cells; test: In vitro T cell dysfunction/exhaustion assay by sequential TCR stimulation (FIG. 2D); type: cell-based; conditions: Teff cells; 2.5 nM, 25 nM and 2.5 μM
# Excerpt: (§1) FIG. 2C is a bar graph showing the suppressive potency of Treg cells expanded in the presence of Compound I-57.
# (§2) Although the specific transcriptional targets of IKZF2 remain to be defined, IKZF2 binds to and represses transcription from the IL-2 promoter region (Baine 2013). […] Finally, an in vitro assay recapitulating hallmarks of T cell dysfunction/exhaustion, by sequential TCR stimulation of isolated primary human T cells, was used to test the hypothesis that […] would rescue the exhausted phenotype and enhance Teff cell activity. […] In addition to IKZF1, other known cereblon substrates including translation termination factor G1 to S phase transition 1 (GSPT1) are not degraded by I-57 (FIG. 1).
# [2] = PK after single oral dose in cynomolgus monkey (FIG. 4, FIG. 5, Table 13); type: in vivo; conditions: for AUC24 h (unbound) / AUC24 h/Dose (unbound) / Cmax (unbound) / Cmax/Dose (unbound): cynomolgus monkey, unbound exposure, n = 3, mean ± SD
# Protocol: FIG. 4 is a graph showing the PK/PD relationship in the cynomolgus monkey after a single oral of 0.01, 0.1 or 1 mg/kg of Compound I-57.
# FIG. 5. is a graph showing plasma concentration in the cynomolgus monkey of Compound I-57 and IKZF2 expression (as determined by flow cytometry) in FOXP3+ T cells from PBMCs after a single oral of 0.01, 0.1 or 1 mg/kg of Compound I-57.
# The PK/PD relationship of I-57 was examined in cynomolgus monkeys after a single oral dose of 0.01, 0.1 or 1 mg/kg. I-57 plasma concentration and IKZF2 expression (as determined by flow cytometry) in FOXP3+ T cells from PBMCs were determined (FIG. 4 and FIG. 5).
# anti-KLH IG = test: Serum anti-KLH IG levels in immunized cynomolgus monkeys; type: in vivo, cynomolgus monkey; conditions: daily oral 0.1 and 3 mg/kg
# Protocol: The PK/PD relationship of I-57 was further examined in cynomolgus monkeys after repeated daily oral doses of 0.1 and 3 mg/kg. In this study, a cohort of animals were initially immunized with an antigen-adjuvant mixture (KLH/Squalene). The experiment was designed to assess the effect of I-57 exposure, and the resulting IKZF2 degradation, on immune response during immunization to test the hypothesis that IKZF2 degradation would result in increased proliferation of stimulated T-cells. In the experiment, daily I-57 oral treatment was initiated 5 days after immunization. An immunization booster dose was administered on day 15. I-57 plasma concentration and IKZF2 expression (as determined by flow cytometry) in FOXP3+ T cells from PBMCs were determined (FIG. 9A and FIG. 9B).
# In order to measure the impact of I-57 treatment on the immune response following immunization, serum anti-KLH IG levels were measured longitudinally, and levels of T cell activation were measured in PBMCs by flow cytometry. […] In contrast, the proportion of proliferative peripheral T cells (denoted by Ki67 staining) was increased in the highest dose group (3 mg/kg) in the recall response phase, compared to immunization alone.
# [3] = In vitro metabolism in liver microsomes and hepatocytes across species; type: in vitro ADME
# [4] = In vivo non-clinical PK / high dose PK and toxicology exposure; design: species or system cynomolgus monkey; conditions: monkey
# Protocol: The in vivo non-clinical PK profile of I-57 was investigated in mouse, rat, dog and cynomolgus monkey using I-57 free base. […] After p.o. administration, the absorption of I-57 was rapid with peak blood concentration (Tmax) occurring between 1 and 4 hours. […] In high dose PK and toxicology studies with I-57 the exposures in mouse, rat and monkey increased with dose.
# [5] = biological target: T1, IKZF2 expression in human CD4+FOXP3+ regulatory T cells (Homo sapiens, UniProt Q96SW2+Q9UKS7); test: PD in MDA-MB231 xenograft hPBMC AdT model: IKZF2 in Tregs by flow cytometry (FIG. 7); type: in vivo
# T1 construct: endogenous in cells; host or cells: adoptively transferred human PBMCs (Tregs, tumor-infiltrating lymphocytes) in NSG mice
# T1 sequence (Q9UKS7 whole entry): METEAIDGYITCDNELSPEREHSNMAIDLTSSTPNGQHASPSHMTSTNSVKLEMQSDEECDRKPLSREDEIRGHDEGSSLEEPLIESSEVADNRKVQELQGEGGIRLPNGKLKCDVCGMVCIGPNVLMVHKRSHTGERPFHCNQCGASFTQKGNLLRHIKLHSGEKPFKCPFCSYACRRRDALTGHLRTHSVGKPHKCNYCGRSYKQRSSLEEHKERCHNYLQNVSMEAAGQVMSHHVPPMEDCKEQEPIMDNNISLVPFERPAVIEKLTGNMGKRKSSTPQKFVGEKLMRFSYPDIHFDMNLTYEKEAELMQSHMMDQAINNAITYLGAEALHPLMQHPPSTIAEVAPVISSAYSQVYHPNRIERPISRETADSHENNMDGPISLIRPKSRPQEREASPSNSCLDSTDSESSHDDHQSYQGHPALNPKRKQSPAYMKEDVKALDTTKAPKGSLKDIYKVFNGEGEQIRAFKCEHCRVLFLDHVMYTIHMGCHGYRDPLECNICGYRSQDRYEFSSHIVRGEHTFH
# T1 sequence (Q96SW2 whole entry): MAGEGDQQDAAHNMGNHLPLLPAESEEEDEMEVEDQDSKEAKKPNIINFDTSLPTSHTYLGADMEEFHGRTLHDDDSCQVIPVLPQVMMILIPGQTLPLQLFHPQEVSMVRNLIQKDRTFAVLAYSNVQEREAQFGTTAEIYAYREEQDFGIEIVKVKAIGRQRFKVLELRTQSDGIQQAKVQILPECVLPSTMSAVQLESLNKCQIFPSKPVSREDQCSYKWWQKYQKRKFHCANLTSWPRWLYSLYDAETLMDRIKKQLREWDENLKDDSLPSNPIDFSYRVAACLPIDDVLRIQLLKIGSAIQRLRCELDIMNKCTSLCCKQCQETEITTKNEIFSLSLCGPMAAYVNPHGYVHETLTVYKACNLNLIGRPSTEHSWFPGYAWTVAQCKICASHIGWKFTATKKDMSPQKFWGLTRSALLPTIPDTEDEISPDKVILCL
# T1 sequence (Q16531 whole entry partner): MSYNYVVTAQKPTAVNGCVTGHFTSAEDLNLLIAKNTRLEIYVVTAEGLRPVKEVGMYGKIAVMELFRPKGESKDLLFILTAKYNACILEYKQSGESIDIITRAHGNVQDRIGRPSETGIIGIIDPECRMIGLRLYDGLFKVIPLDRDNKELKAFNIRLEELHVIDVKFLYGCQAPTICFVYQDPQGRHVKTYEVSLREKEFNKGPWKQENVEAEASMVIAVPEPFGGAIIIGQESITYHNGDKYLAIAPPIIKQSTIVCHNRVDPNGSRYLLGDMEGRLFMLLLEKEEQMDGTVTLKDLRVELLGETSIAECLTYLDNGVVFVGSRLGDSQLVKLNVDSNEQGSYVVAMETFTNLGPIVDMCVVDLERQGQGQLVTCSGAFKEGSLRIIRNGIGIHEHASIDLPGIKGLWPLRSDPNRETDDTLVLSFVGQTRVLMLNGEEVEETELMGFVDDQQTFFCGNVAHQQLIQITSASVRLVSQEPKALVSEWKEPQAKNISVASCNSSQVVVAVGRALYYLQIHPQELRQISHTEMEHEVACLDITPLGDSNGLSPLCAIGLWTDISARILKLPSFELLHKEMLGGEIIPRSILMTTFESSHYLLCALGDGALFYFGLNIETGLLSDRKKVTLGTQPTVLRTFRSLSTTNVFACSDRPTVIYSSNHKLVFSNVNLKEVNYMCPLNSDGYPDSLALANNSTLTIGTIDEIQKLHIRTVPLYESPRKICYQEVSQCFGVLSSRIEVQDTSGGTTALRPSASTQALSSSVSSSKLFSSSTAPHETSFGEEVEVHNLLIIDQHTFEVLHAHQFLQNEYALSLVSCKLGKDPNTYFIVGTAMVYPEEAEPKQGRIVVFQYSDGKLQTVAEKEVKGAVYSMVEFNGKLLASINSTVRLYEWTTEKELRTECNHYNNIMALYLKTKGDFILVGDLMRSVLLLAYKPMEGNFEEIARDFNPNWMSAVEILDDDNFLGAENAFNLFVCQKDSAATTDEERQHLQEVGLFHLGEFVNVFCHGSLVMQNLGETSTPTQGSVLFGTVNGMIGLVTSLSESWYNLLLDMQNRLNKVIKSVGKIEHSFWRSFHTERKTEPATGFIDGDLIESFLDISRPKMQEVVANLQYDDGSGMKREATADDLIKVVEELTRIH
# Protocol: FIG. 6 is a pictorial representation of the multi-dose PK/PD study design in the human PBMC adoptive transfer mouse model harboring MDA-MB231 xenografts. Fourteen consecutive daily doses of Compound I-57 was administered at 0.3 mg/kg, 1 mg/kg, 3 mg/kg or 30 mg/kg.
# FIG. 7 is a graph showing the change in the IKZF2 expression in human CD4+FOXP3+ regulatory T cells isolated from MDA-MB231 tumor xenografts (Tumor) or blood (Periphery) following 14 daily oral doses of 0.3, 1, 3 and 30 mg/kg Compound I-57 administered to the hPBMC AdT model.
# The PK/PD relationship of I-57 was examined in the hPBMC AdT model system. Human PBMCs were adoptively transferred into female NSG mice harboring established MDA-MB231 xenografts (FIG. 6). This model was selected based on the observation that IKZF2 positive Tregs (CD4+FOXP3+) were readily identifiable in peripheral blood and infiltrated in the tumor xenografts.
# The impact of I-57 on IKZF2 protein expression in human Tregs in the periphery and infiltrated in MDA-MB231 xenografts was assessed via flow cytometry at multiple time points after the last I-57 dose. […] Maximum effects were generally observed 4-16 h post dose. At a given dose level, the magnitude and duration of IKZF2 reduction in Tregs was generally consistent across tissues (tumor, spleen and blood).
# Based on the data from this hPBMC AdT mouse model, unbound I-57 (73% percent plasma binding in the mouse) exposures (AUCinf) of 7, 30, 157 and 3474 ng*h/mL are required to achieve the reduction of IKZF2 positivity (via flow cytometry) in tumor Tregs by 31, 43, 56, and 75%, respectively. The relationship between the magnitude and duration of I-57-mediated IKZF2 degradation and subsequent modulation of therapeutically relevant downstream biology is not yet well understood.
# TMEM97 = biological target: T2, TMEM97 (Homo sapiens, UniProt Q5BJF2); test: Whole cell proteomic analysis in 293T cells; type: cell-based; conditions: nearly 8000 proteins identified
# T2 construct: endogenous in cells; host or cells: 293T
# T2 sequence (Q5BJF2 whole entry): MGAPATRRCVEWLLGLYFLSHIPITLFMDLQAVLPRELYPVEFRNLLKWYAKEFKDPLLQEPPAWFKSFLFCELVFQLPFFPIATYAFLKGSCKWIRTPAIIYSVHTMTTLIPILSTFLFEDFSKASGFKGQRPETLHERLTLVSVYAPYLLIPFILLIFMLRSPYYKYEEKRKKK
# Protocol: Other potential degradation targets of I-57 were evaluated in 293T cells using whole cell proteomic analysis. […] Subsequent analyses have confirmed that FIZ1 is degraded by about 50% at a 10 μM concentration of I-57 ([I-57 Investigator's Brochure]). […] FIZ1 is expressed in the neural retina where it transcriptionally represses the differentiation of photoreceptors. FIZ1 is also expressed in non-ocular tissues with unknown function.
# primary human Tregs = test: Suppressive potency of Treg cells expanded in vitro in the presence of compound (FIG. 2C); type: cell-based
# Excerpt: as §1, §2
structure (smiles),measurement,setting,value
"O=C1CCC(N2Cc3cc(C4CCN(Cc5ccccc5)CC4)ccc3C2=O)C(=O)N1 (centres unmarked) [Compound I-57, 3-(5-(1-benzylpiperidin-4-yl)-1-oxoisoindolin-2-yl)piperidine-2,6-dione]",IFNγ production by IKZF2 positive cells,[1],concomitant increase
same,AUC24 h (unbound),[2]; single oral dose 0.01 mg/kg,14.1 ± 4.72 ng·h/mL
same,AUC24 h/Dose (unbound),[2]; single oral dose 0.01 mg/kg,1410 ± 472 (ng · h/mL)/(mg/kg)
same,Cmax (unbound),[2]; single oral dose 0.01 mg/kg,2.11 ± 0.69 ng/mL
same,Cmax/Dose (unbound),[2]; single oral dose 0.01 mg/kg,211 ± 69.1 (ng/mL)/(mg/kg)
same,AUC24 h (unbound),[2]; single oral dose 0.1 mg/kg,102 ± 13.2 ng·h/mL
same,AUC24 h/Dose (unbound),[2]; single oral dose 0.1 mg/kg,1020 ± 136 (ng · h/mL)/(mg/kg)
same,Cmax (unbound),[2]; single oral dose 0.1 mg/kg,13.4 ± 2.77 ng/mL
same,Cmax/Dose (unbound),[2]; single oral dose 0.1 mg/kg,134 ± 27.7 (ng/mL)/(mg/kg)
same,AUC24 h (unbound),[2]; single oral dose 1 mg/kg,610 ± 236 ng·h/mL
same,AUC24 h/Dose (unbound),[2]; single oral dose 1 mg/kg,610 ± 236 (ng · h/mL)/(mg/kg)
same,Cmax (unbound),[2]; single oral dose 1 mg/kg,102 ± 45.3 ng/mL
same,Cmax/Dose (unbound),[2]; single oral dose 1 mg/kg,102 ± 45.3 (ng/mL)/(mg/kg)
same,dose proportionality of observed exposures,"[2]; single oral dose of 0.01, 0.1 or 1 mg/kg",slightly less than dose proportional
same,anti-IgG titers elicited by the immunization,anti-KLH IG,not further enhanced
same,metabolic stability,[3],very stable
same,increase in AUC with dose,[4]; above 100 mg/kg,less than dose proportional
same,increase in AUC with dose,[4]; between 10 mg/kg and 100 mg/kg,slightly over-proportional
same,time of maximum effects,[5]; post dose (after last dose),4 to 16 h
same,IKZF2 degradation (reduction of percentage of IKZF2 positive Tregs),"[5]; tumor and peripheral blood, 14 daily oral doses of 0.3, 1, 3 and 30 mg/kg",robust dose and exposure-dependent IKZF2 degradation
same,reduction of IKZF2 positivity in tumor Tregs (flow cytometry),[5]; unbound AUCinf 7 ng*h/mL,31%
same,reduction of IKZF2 positivity in tumor Tregs (flow cytometry),[5]; unbound AUCinf 30 ng*h/mL,43%
same,reduction of IKZF2 positivity in tumor Tregs (flow cytometry),[5]; unbound AUCinf 157 ng*h/mL,56%
same,reduction of IKZF2 positivity in tumor Tregs (flow cytometry),[5]; unbound AUCinf 3474 ng*h/mL,75%
same,TMEM97 degradation (proteomics),TMEM97,degraded
same,proportion of IKZF2-expressing cells,primary human Tregs,remained unchanged
